Data as given in the supplement of paper PMC6045584.
± gives the standard deviation of the averaged measurements.

Assays:
AFATINIB [1] = compound: T1, CN(C)C/C=C/C(=O)Nc1cc2c(Nc3ccc(F)c(Cl)c3)ncnc2cc1O[C@H]1CCOC1 [AFATINIB]; assay: surviving fraction relative to DMSO-only wells; higher = less growth inhibition; conditions: exposure time: 5 days
How it was run: (§1)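 Log-phase tumour cells were seeded at 250–500 per well in 384-well plates and, from 24 hours after seeding, exposed continuously for five days to inhibitors at 0.5, 1, 5, 10, 50, 100, 500 and 1000 nM. Surviving fraction is CellTiter-Glo luminescence normalised to the median of DMSO-only wells. Luminescence was measured after 10 minutes at room temperature, and only lines screened three times with replicate Pearson r >0.7 and median Z' >0.3 were kept.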

[2] = compound: Cn1cc(C2=Nc3cc(NC(=O)C(N)C4CCCCC4)cc4c3C2=CNNC4=O)cn1; assay: as above; conditions: exposure time: 5 days
How it was run: as §1

SNX-5422 = compound: CC1(C)CC(=O)c2c(C(F)(F)F)nn(-c3ccc(C(N)=O)c(N[C@H]4CC[C@H](OC(=O)CN)CC4)c3)c2C1 [SNX-5422]; assay: area under dose-response curve of surviving fraction (unscaled, Aref=0) (surviving fraction x log10(nM)); higher = more resistant; conditions: exposure time: 5 days; dose range 0.5-1000 nM
How it was run: (§2)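 Tumour cell lines in 384-well plates were exposed to eight inhibitor concentrations, from 0.5 to 1000 nM, for five days, and viability was read by CellTiter-Glo luminescence in three screens per line. Signals were normalised to DMSO-only wells, and 3-parameter logistic regression in the drc R package fitted dose-response survival curves to the surviving fractions. Area under the curve is given as the unscaled activity area. That area is taken over log10 dose with Aref = 0.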

SAPACITABINE = compound: CCCCCCCCCCCCCCCC(=O)Nc1ccn([C@@H]2O[C@H](CO)[C@@H](O)[C@@H]2C#N)c(=O)n1 [SAPACITABINE]; assay: as above; conditions: exposure time: 5 days; dose range 0.5-1000 nM
How it was run: as §2

AFATINIB [3] = compound: T1, AFATINIB; assay: as above; conditions: exposure time: 5 days; dose range 0.5-1000 nM
How it was run: as §2

[4] = compound: Cn1cc(C2=Nc3cc(NC(=O)C(N)C4CCCCC4)cc4c3C2=CNNC4=O)cn1; assay: as above; conditions: exposure time: 5 days; dose range 0.5-1000 nM
How it was run: as §2

Test System	surviving fraction (AFATINIB [1]; 0.5 nM)	surviving fraction (AFATINIB [1]; 1 nM)	surviving fraction (AFATINIB [1]; 5 nM)	surviving fraction (AFATINIB [1]; 10 nM)	surviving fraction (AFATINIB [1]; 50 nM)	surviving fraction (AFATINIB [1]; 100 nM)	surviving fraction (AFATINIB [1]; 500 nM)	surviving fraction (AFATINIB [1]; 1000 nM)	surviving fraction ([2]; 0.5 nM)	surviving fraction ([2]; 1 nM)	surviving fraction ([2]; 5 nM)	surviving fraction ([2]; 10 nM)	surviving fraction ([2]; 50 nM)	surviving fraction ([2]; 100 nM)	surviving fraction ([2]; 500 nM)	surviving fraction ([2]; 1000 nM)	area under dose-response curve (SNX-5422)	area under dose-response curve (SAPACITABINE)	area under dose-response curve (AFATINIB [3])	area under dose-response curve [4]
CAL72 BONE	1.09 ± 0.021	1.02 ± 0.061	1.07 ± 0.018	1.06 ± 0.042	1.11 ± 0.011	1.1 ± 0.036	0.984 ± 0.031	0.893 ± 0.053	1.04 ± 0.03	1.02 ± 0.038	1.02 ± 0.019	1.02 ± 0.04	0.937 ± 0.052	0.836 ± 0.043	0.111 ± 0.011	0.147 ± 0.01	2.02	2.07	3.5	2.58
SG31 HEADNECK	0.967 ± 0.1	0.947 ± 0.046	0.62 ± 0.11	0.615 ± 0.18	0.515 ± 0.12	0.471 ± 0.13	0.528 ± 0.035	0.452 ± 0.054	1.01 ± 0.076	1.06 ± 0.18	0.908 ± 0.1	0.901 ± 0.11	0.881 ± 0.11	0.825 ± 0.02	0.79 ± 0.021	0.669 ± 0.052	2.1	2.62	2.04	2.91
MDAMB157 BREAST	0.993 ± 0.14	0.975 ± 0.048	0.96 ± 0.09	0.976 ± 0.16	0.979 ± 0.069	0.944 ± 0.12	0.85 ± 0.097	0.526 ± 0.06	0.982 ± 0.061	0.965 ± 0.13	1.02 ± 0.065	0.994 ± 0.12	1 ± 0.044	0.916 ± 0.1	0.425 ± 0.057	0.172 ± 0.043	2.28	2.24	3.17	2.88
ZR751 BREAST	1.14 ± 0.15	0.982 ± 0.17	0.979 ± 0.058	0.926 ± 0.13	0.746 ± 0.097	0.87 ± 0.1	0.671 ± 0.083	0.536 ± 0.068	1.04 ± 0.079	1.03 ± 0.19	0.941 ± 0.13	0.908 ± 0.11	0.787 ± 0.032	0.69 ± 0.053	0.625 ± 0.044	0.555 ± 0.018	2.39	2.9	2.83	2.71
CHLA90 AUTONOMIC GANGLIA	0.991 ± 0.042	0.981 ± 0.056	0.839 ± 0.063	0.849 ± 0.077	0.819 ± 0.017	0.796 ± 0.052	0.775 ± 0.051	0.593 ± 0.036	1.01 ± 0.025	1.07 ± 0.07	0.956 ± 0.057	0.992 ± 0.023	0.772 ± 0.03	0.557 ± 0.04	0.101 ± 0.0068	0.0843 ± 0.011	2.04	2.09	2.76	2.37
OS25HAL BONE	0.966 ± 0.014	1.01 ± 0.018	1 ± 0.029	1 ± 0.044	1.03 ± 0.039	1.08 ± 0.013	1.02 ± 0.03	0.855 ± 0.085	1.014 ± 0.01	1.03 ± 0.042	1.005 ± 0.0044	1.012 ± 0.0078	0.978 ± 0.045	0.984 ± 0.012	0.0757 ± 0.017	0.0387 ± 0.0011	2.27	2.79	3.28	2.71
COLO320DM LARGE INTESTINE	1.14 ± 0.075	1.06 ± 0.088	1.08 ± 0.14	1.06 ± 0.073	1.04 ± 0.083	1.04 ± 0.08	0.872 ± 0.093	0.634 ± 0.037	0.957 ± 0.12	1.09 ± 0.15	0.97 ± 0.076	1.08 ± 0.11	1.01 ± 0.23	0.954 ± 0.098	0.877 ± 0.13	0.664 ± 0.053	2.19	2.44	3.24	3.21
OSHN BONE	1.08 ± 0.03	1.07 ± 0.031	1.09 ± 0.042	1.07 ± 0.032	1.11 ± 0.032	1.11 ± 0.033	1.1 ± 0.031	1.06 ± 0.019	1.05 ± 0.044	1.077 ± 0.001	1.05 ± 0.018	1.062 ± 0.0075	0.959 ± 0.021	0.924 ± 0.017	0.0477 ± 0.0023	0.0277 ± 0.00058	2.25	2.83	3.58	2.6
SIHA CERVIX	1.05 ± 0.025	1.06 ± 0.069	1.02 ± 0.022	1.01 ± 0.064	1.03 ± 0.011	1.07 ± 0.085	0.845 ± 0.019	0.684 ± 0.052	1.053 ± 0.0049	0.972 ± 0.02	1.06 ± 0.086	1.06 ± 0.043	1.02 ± 0.05	1.05 ± 0.07	0.917 ± 0.059	0.524 ± 0.024	2.2	3.12	3.2	3.22
HCC1954 BREAST	0.969 ± 0.079	0.886 ± 0.021	0.763 ± 0.028	0.56 ± 0.0078	0.471 ± 0.094	0.479 ± 0.025	0.266 ± 0.038	0.145 ± 0.011	0.772 ± 0.092	0.584 ± 0.042	0.927 ± 0.019	0.889 ± 0.035	0.571 ± 0.011	0.6015 ± 0.0014	0.1713 ± 0.0011	0.0897 ± 0.0074	1.62	1.48	1.86	2.06
CAL51 BREAST	0.97 ± 0.048	1.02 ± 0.022	1.002 ± 0.0031	0.977 ± 0.033	1.04 ± 0.019	1.02 ± 0.028	0.963 ± 0.085	0.682 ± 0.06	0.889 ± 0.037	0.973 ± 0.041	0.945 ± 0.052	0.903 ± 0.037	0.962 ± 0.079	0.875 ± 0.048	0.484 ± 0.0085	0.276 ± 0.026	1.93	2.32	3.19	2.86
HT1080 SOFT TISSUE	0.994 ± 0.033	1.02 ± 0.015	1.037 ± 0.0045	0.991 ± 0.048	0.985 ± 0.036	1 ± 0.047	0.943 ± 0.031	0.729 ± 0.055	0.977 ± 0.013	1.01 ± 0.03	0.987 ± 0.028	1.03 ± 0.025	0.879 ± 0.041	0.812 ± 0.013	0.153 ± 0.0023	0.122 ± 0.016	2.11	2.33	3.25	2.6
MDAMB468 BREAST	1.07 ± 0.026	1.04 ± 0.021	0.861 ± 0.078	0.767 ± 0.14	0.61 ± 0.017	0.617 ± 0.025	0.297 ± 0.012	0.0913 ± 0.0067	0.95 ± 0.0069	0.975 ± 0.067	0.984 ± 0.049	0.978 ± 0.031	0.858 ± 0.025	0.786 ± 0.11	0.151 ± 0.0051	0.0767 ± 0.0046	1.94	2.27	2.26	2.58
CASKI CERVIX	0.715 ± 0.055	0.522 ± 0.028	0.409 ± 0.041	0.274 ± 0.015	0.259 ± 0.0076	0.223 ± 0.006	0.049 ± 0.007	0.02 ± 0.0017	0.918 ± 0.028	0.962 ± 0.082	0.92 ± 0.028	0.949 ± 0.038	0.511 ± 0.043	0.251 ± 0.071	0.057 ± 0.0095	0.0573 ± 0.0038	1.63	2.91	0.986	2.04
